According to paper PMC9097471, “Development of Selective Phosphatidylinositol 5-Phosphate 4-Kinase γ Inhibitors with a Non-ATP-competitive, Allosteric Binding Mode” (Journal of Medicinal Chemistry, 2022):
“And” between values parts separate entries of the source, which are not always exact repeats. Identical values can stand only once.

Columns and labels:
[1] = molecular target: T1, PI5P4Kγ+ (Homo sapiens, UniProt Q8TBX8, D138G/D197E/E133P/E135D/E153T/E196G/G136S/G139A/N195G/S132L/S134N); assay: ADP-Glo inhibition assay; format: biochemical; conditions: for IC50 / PI5P4Kγ+ inhibition: ADP-Glo; for IC50: mutant PI5P4Kγ+ construct, read-out: PI5P4Kγ+ pIC50 (converted); for PI5P4Kγ+ LE: ligand efficiency from PI5P4Kγ+ pIC50
T1 construct: GST (N, cleaved yes); made in house; host or cells: E. coli BL21(DE3), pGEX6P
T1 sequence (Q8TBX8 with tags, fused parts or gaps INS131LPN/S132D/E133S/S134Q/E135A/G136R/D138G/G139A/E153T/N195G/E196G/D197E): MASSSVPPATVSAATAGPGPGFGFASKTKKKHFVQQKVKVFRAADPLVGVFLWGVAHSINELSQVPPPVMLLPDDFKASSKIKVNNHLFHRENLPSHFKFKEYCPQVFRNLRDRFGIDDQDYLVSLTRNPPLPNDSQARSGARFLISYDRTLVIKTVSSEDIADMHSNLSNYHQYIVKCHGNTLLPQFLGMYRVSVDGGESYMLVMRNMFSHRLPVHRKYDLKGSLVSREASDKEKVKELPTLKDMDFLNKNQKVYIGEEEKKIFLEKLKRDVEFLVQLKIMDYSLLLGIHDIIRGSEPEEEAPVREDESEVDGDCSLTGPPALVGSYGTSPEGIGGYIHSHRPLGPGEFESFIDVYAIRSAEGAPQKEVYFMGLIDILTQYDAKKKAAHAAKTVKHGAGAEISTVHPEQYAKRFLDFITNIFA
Experimental: Recombinant mutant PI5P4Kγ+ was prepared essentially as described previously.[25] […] Cultures were induced with 0.4 mM IPTG and probe sonicated in the presence of protease inhibitors. The GST fusion protein of PI5P4Kγ+ was harvested by binding to glutathione sepharose beads (Cytiva) and cleaved in situ with 50U of PreScission protease (Cytiva) for 4 h at 4 °C. The cleaved protein was further purified by size-exclusion chromatography (AKTA Pure, Cytiva). The protein purity was confirmed by sodium dodecyl sulphate–polyacrylamide gel electrophoresis, and the concentration was determined by colorimetric assay (Bio-Rad).
Statistical analysis was performed using nonparametric testing in Prism 8 (GraphPad). Activity pIC50 values and in vivo binding pEC50 values were estimated using a 4-parameter fit (Dotmatics).

[2] = molecular target: T2, PI5P4Kγ-WT (Homo sapiens, UniProt Q8TBX8); assay: Thermal shift assay; conditions: read-out: ΔTm PI5P4Kγ WT, thermal shift, compound 63 μM
T2 sequence (Q8TBX8 1-421): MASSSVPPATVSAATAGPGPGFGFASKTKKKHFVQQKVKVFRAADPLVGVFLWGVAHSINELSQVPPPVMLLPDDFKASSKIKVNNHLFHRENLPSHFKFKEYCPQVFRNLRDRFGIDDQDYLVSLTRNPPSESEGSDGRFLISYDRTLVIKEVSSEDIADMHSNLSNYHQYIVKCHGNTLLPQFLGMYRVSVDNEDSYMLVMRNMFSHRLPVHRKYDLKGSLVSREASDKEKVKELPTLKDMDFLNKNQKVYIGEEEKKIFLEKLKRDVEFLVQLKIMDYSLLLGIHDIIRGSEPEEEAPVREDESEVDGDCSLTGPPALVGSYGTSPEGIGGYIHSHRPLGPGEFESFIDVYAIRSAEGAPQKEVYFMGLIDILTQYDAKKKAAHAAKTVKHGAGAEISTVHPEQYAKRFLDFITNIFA

[3] = molecular target: T3, PI5P4Kα-WT (Homo sapiens, UniProt P48426); assay: ADP-Glo inhibition assay; conditions: ADP-Glo
T3 sequence (P48426 1-406): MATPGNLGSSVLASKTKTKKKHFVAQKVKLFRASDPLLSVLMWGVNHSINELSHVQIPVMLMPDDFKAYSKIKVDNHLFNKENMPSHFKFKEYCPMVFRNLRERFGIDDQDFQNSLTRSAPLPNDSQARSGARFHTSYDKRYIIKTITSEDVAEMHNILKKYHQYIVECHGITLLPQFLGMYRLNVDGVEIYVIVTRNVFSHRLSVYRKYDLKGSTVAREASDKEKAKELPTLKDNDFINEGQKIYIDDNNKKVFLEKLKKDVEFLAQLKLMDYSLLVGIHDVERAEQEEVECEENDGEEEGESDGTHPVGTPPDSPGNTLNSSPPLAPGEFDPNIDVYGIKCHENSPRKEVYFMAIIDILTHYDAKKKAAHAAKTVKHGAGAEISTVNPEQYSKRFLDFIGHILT
Source text: To enable direct comparisons, Promega’s ADP-Glo reporter assay was developed using a mutant form of the kinase. […] To mitigate concerns about being misled by the use of the PI5P4Kγ+ construct and the possible introduction of PI5P4Kα activity into the molecules, our screening cascade included the measurement of ADP-Glo activity at PI5P4Kα-WT (and PI5P4Kβ-WT to fully understand emerging selectivity profiles).

Row | Compound | IC50 [1] | ΔTm at 63 µM [2] [°C] | PI5P4Kα pIC50 [3] | PI5P4Kγ+ LE [1] | PI5P4Kγ+ inhibition [1] | PI5P4Kα inhibition [3]
1 | Clc1ccc(-c2nc(NCc3cccs3)c3ccccc3n2)cc1 [Compound 9] | > 50.1 µM | -1.6 | <4.3 |  |  | 
2 | FC(F)(F)c1ccccc1-c1nc(NCc2cccnc2)c2ccccc2n1 [Compound 12] | > 50.1 µM | 1.4 | <4.3 |  |  | 
3 | FC(F)(F)c1ccccc1-c1nc(NCc2cnccn2)c2ccccc2n1 [Compound 13] | 3.16 µM | 6.1 | <4.3 | 0.27 |  | 
4 | FC(F)(F)c1ccccc1-c1nc(NCCc2cccs2)c2ccccc2n1 [Compound 15] | > 50.1 µM |  | <4.3 |  |  | 
5 | Fc1ccc(-c2nc(NCc3ccccn3)c3ccccc3n2)c(C(F)(F)F)c1 [Compound 16] | 1 µM |  | <4.3 | 0.29 |  | 
6 | Fc1ccc(C(F)(F)F)c(-c2nc(NCc3ccccn3)c3ccccc3n2)c1 [Compound 17] | 3.98 µM |  | <4.3 | 0.26 |  | 
7 | FC(F)(F)c1cccc(-c2nc(NCc3ccccn3)c3ccccc3n2)c1 [Compound 18] | > 50.1 µM | 1.3 | <4.3 |  |  | 
8 | FC(F)(F)c1ccc(-c2nc(NCc3ccccn3)c3ccccc3n2)cc1 [Compound 19] | > 50.1 µM | 1.7 | <4.3 |  |  | 
9 | COc1cccc(-c2nc(NCc3ccccn3)c3ccccc3n2)c1 [Compound 20] | 7.94 µM | 5.1 | <4.3 | 0.27 |  | 
10 | COc1ccc(-c2nc(NCc3ccccn3)c3ccccc3n2)cc1 [Compound 21] | 7.94 µM | 5.1 | <4.3 | 0.27 |  | 
11 | c1ccc(CNc2nc(-c3ccccc3C3CC3)nc3ccccc23)nc1 [Compound 23] | 2.51 µM |  | <4.3 | 0.29 |  | 
12 | CCc1ccccc1-c1nc(NCc2ccccn2)c2ccccc2n1 [Compound 24] | 5.01 µM | 4.9 | <4.3 | 0.29 |  | 
13 | c1ccc(-c2ccccc2-c2nc(NCc3ccccn3)c3ccccc3n2)cc1 [Compound 25] | 10 µM | 4.4 | <4.3 | 0.24 |  | 
14 | N#Cc1ccccc1-c1nc(NCc2ccccn2)c2ccccc2n1 [Compound 26] | > 50.1 µM | 2.9 | <4.3 |  |  | 
15 | CN(C)c1ccccc1-c1nc(NCc2ccccn2)c2ccccc2n1 [Compound 27] | > 50.1 µM | 2.7 | <4.3 |  |  | 
16 | CC(C)c1ccccc1-c1nc(Nc2ccccn2)c2ccccc2n1 [Compound 28] | > 25.1 µM |  | <4.3 |  |  | 
17 | CC(C)c1ccccc1-c1nc(NCc2ccc(C(F)(F)F)cn2)c2ccccc2n1 [Compound 30] | > 50.1 µM |  | <4.3 |  |  | 
18 | CC(C)c1ccccc1-c1nc(NCc2ncccc2O)c2ccccc2n1 [Compound 31] | 0.631 µM | 7 |  |  |  | 
19 | CC(C)c1ccccc1-c1nc(NCc2ccccn2)c2cc(Br)ccc2n1 [Compound 32] | 0.2 µM |  | <4.3 | 0.33 |  | 
20 | CC(C)c1ccccc1-c1nc(NCc2ccccn2)c2cc(N)ccc2n1 [Compound 33] | 0.316 µM |  | <4.3 | 0.32 |  | 
21 | CC(C)c1ccccc1-c1nc(NCc2ccccn2)c2ccn(C)c2n1 [Compound 39] | > 50.1 µM |  | <4.3 |  | inactive | 
22 | CC(C)c1ccccc1-c1nc(NCc2ccccn2)c2c(ccn2CC2CC2)n1 [Compound 41] | 0.316 µM and 2.51 µM | 4.9 | <4.3 | 0.31 |  | 
23 | Cc1cnc(-c2ccccc2C(C)C)nc1NCc1ccc(-n2ccnn2)cc1 [ML323, reference compound] |  |  |  |  | inactive | inactive
